Converted amounts (≈) assume the structure as drawn.
What was measured:
Test in all cases: ≥ marks a high value that may be exact or a test limit, other limits are often not marked, values filed in µg/mL are converted to µM
[1] = tested on: Pseudomonas aeruginosa ATCC 27853
[2] = tested on: Staphylococcus aureus ATCC 25923
Bacillus subtilis = tested on: Bacillus subtilis
[3] = tested on: Escherichia coli DH5alpha
Escherichia coli = tested on: Escherichia coli
Staphylococcus aureus = tested on: Staphylococcus aureus
[4] = tested on: Staphylococcus aureus ATCC 6538
[5] = tested on: Pseudomonas aeruginosa ATCC 9027
Klebsiella pneumoniae = tested on: Klebsiella pneumoniae
Candida albicans = tested on: Candida albicans
[6] = tested on: Escherichia coli ATCC 25922

In the case of `CC[C@H](C)[C@H](NC(=O)[C@H](Cc1ccccc1)NC(=O)[C@@H](NC(=O)[C@H](Cc1c[nH]c2ccccc12)NC(=O)[C@H](CCCN=C(N)N)NC(=O)[C@H](CCCCN)NC(=O)[C@H](CCCN=C(N)N)NC(=O)[C@H](CCCCN)NC(=O)[C@H](Cc1c[nH]c2ccccc12)NC(=O)[C@H](CC(C)C)NC(=O)[C@@H](NC(=O)[C@@H](N)Cc1ccc(O)cc1)C(C)C)[C@@H](C)CC)C(=O)O` [YVLWKRKRWIFI], the MIC [1] is reported as 150 µM (≈ 256 µg/mL), the MIC [2] is reported as 40 µM (≈ 68.3 µg/mL) and the MIC (Bacillus subtilis) is reported as 5 µM (≈ 8.54 µg/mL). It also gave an MIC [3] of no less than 60 µM.
For `CC[C@H](C)[C@H](NC(=O)[C@H](CC(C)C)NC(=O)[C@H](C)NC(=O)[C@@H]1CCCN1C(=O)[C@H](CC(C)C)NC(=O)CN)C(=O)N[C@@H](CO)C(=O)N[C@@H](CC(C)C)C(=O)N[C@H](C(=O)N[C@@H](CCCCN)C(=O)N[C@@H](CCCN=C(N)N)C(=O)N[C@@H](CCCCN)C(=O)N[C@@H](CCCN=C(N)N)C(=O)N[C@@H](CCC(N)=O)C(=O)N[C@@H](CCC(N)=O)C(N)=O)[C@@H](C)CC` [GLPALISLIKRKRQQ], the MIC (Bacillus subtilis) was 5.81 µM (≈ 9.99 µg/mL), the MIC (Escherichia coli) was 93.5 µM (≈ 161 µg/mL) and the MIC (Staphylococcus aureus) was 7.84 µM (≈ 13.5 µg/mL).
With `CC(C)C[C@H](NC(=O)[C@H](CCCCN)NC(=O)[C@H](C)NC(=O)[C@H](CC(C)C)NC(=O)[C@H](CC(C)C)NC(=O)[C@H](CCCCN)NC(=O)[C@H](C)NC(=O)[C@@H](N)Cc1ccccc1)C(=O)N[C@@H](C)C(=O)N[C@@H](CCCCN)C(N)=O` [FAKLLAKLAK] the MIC [4] was 45.4 µM (≈ 50 µg/mL) and the MIC [5] was 181 µM (≈ 200 µg/mL).
`CC[C@H](C)[C@H](NC(=O)CNC(=O)[C@H](CC(N)=O)NC(=O)[C@@H](NC(=O)[C@H](C)NC(=O)[C@H](CC(N)=O)NC(=O)[C@H](CC(C)C)NC(=O)[C@H](C)NC(=O)[C@H](C)NC(=O)[C@H](CCCN=C(N)N)NC(=O)CNC(=O)[C@H](C)NC(=O)[C@H](C)NC(=O)[C@H](C)NC(=O)[C@H](C)NC(=O)[C@H](CCSC)NC(=O)[C@H](CC(=O)O)NC(=O)[C@H](CCCCN)NC(=O)[C@@H](NC(=O)[C@H](CO)NC(=O)[C@H](CO)NC(=O)[C@H](Cc1c[nH]c2ccccc12)NC(=O)[C@H](CC(C)C)NC(=O)[C@@H](N)CO)[C@@H](C)CC)C(C)C)C(=O)N[C@H](C(=O)N[C@@H](CC(N)=O)C(=O)N1CCC[C@H]1C(N)=O)C(C)C` [SLWSSIKDMAAAAGRAALNAVNGIVNP] showed an MIC (Klebsiella pneumoniae) greater than 190 µM, an MIC [2] of 190 µM (≈ 512 µg/mL) and an MIC (Candida albicans) greater than 190 µM. It also gave an MIC [6] of 47.5 µM (≈ 128 µg/mL).
`CC(C)C[C@H](NC(=O)[C@H](CCCCN)NC(=O)[C@H](CCCCN)NC(=O)[C@H](C)NC(=O)[C@H](CC(C)C)NC(=O)[C@H](CCCCN)NC(=O)[C@H](C)NC(=O)[C@H](CC(C)C)NC(=O)[C@H](CCCCN)NC(=O)[C@H](CCCCN)NC(=O)[C@H](CC(C)C)NC(=O)[C@H](CCCCN)NC(=O)[C@H](CCCCN)NC(=O)[C@H](C)NC(=O)[C@@H](N)Cc1ccccc1)C(N)=O` [FAKKLKKLAKLAKKL] showed an MIC [4] of 5.79 µM (≈ 9.99 µg/mL) and an MIC [5] of 2.89 µM (≈ 5 µg/mL).
`CC[C@H](C)[C@H](NC(=O)CNC(=O)[C@H](CCCCN)NC(=O)CNC(=O)[C@H](Cc1ccccc1)NC(=O)[C@H](C)NC(=O)[C@H](CC(C)C)NC(=O)[C@H](CCCCN)NC(=O)[C@H](C)NC(=O)[C@H](Cc1c[nH]c2ccccc12)NC(=O)[C@H](CC(C)C)NC(=O)[C@H](CCCCN)NC(=O)[C@H](C)NC(=O)[C@@H](N)Cc1ccccc1)C(=O)NCC(=O)N[C@@H](CCCCN)C(=O)N[C@H](C(=O)NCC(=O)N[C@@H](CCCCN)C(=O)N[C@@H](CCCCN)C(=O)N[C@@H](CC(C)C)C(=O)N[C@@H](CC(C)C)C(N)=O)C(C)C` [FAKLWAKLAFGKGIGKVGKKLL] showed an MIC [4] of 6.32 µM (≈ 15 µg/mL) and an MIC [5] of 4.21 µM (≈ 10 µg/mL).
`CC[C@H](C)[C@H](NC(=O)CNC(=O)[C@H](CO)NC(=O)[C@H](CC(C)C)NC(=O)[C@H](CC(C)C)NC(=O)CN)C(=O)N[C@@H](CC(C)C)C(=O)NCC(=O)N[C@@H](C)C(=O)NCC(=O)N[C@@H](CCCCN)C(=O)N[C@@H](CCC(N)=O)C(=O)N[C@@H](CCCCN)C(=O)N[C@H](C(=O)N[C@H]1CSSC[C@@H](C(=O)O)NC(=O)[C@H](CC(C)C)NC(=O)CNC(=O)[C@H](CO)NC(=O)[C@H](CC(C)C)NC(=O)CNC1=O)C(C)C` [GLLSGILGAGKQKVCGLSGLC] showed an MIC (Bacillus subtilis) of 19 µM (≈ 37.5 µg/mL), an MIC (Escherichia coli) of 4.75 µM (≈ 9.36 µg/mL) and an MIC (Candida albicans) of 2.37 µM (≈ 4.68 µg/mL). For the same compound, the MIC (Staphylococcus aureus) was 9.5 µM (≈ 18.7 µg/mL).
